`CN1CCN(c2ccccc2C=C2SCCN(Cc3ccc(Cl)c(Cl)c3)C2=O)CC1.Cl.O.O` (hydrate or solvate) and `CN1CCN(c2ccccc2C=C2SCCN(Cc3ccccc3)C2=O)CC1` [Example 4, 4-Benzyl-2-[2-(4-methylpiperazin-1-yl)-benzylidene]-thiomorpholin-3-one] cannot be ordered by melting point: 90 to 115 °C for the first, 106 to 108 °C for the second.

First: CN1CCN(c2ccccc2C=C2SC(=O)N(c3ccc(C(F)(F)F)cc3)C2=O)CC1.Cl.O.O (hydrate or solvate)
Second: CN1CCN(c2ccccc2C=C2SCCN(c3ccc(C(F)(F)F)cc3)C2=O)CC1.Cl.O.O.O (hydrate or solvate)
The melting point of the first is higher: 159 to 177 °C for the first, 128 to 134 °C for the second.

First: CN1CCN(c2ccccc2C=C2NC(=O)N(c3ccc(Cl)cc3)C2=O)CC1 [Example 2, 3-(4-Chlorophenyl)-5-[2-(4-methylpiperazin-1-yl)-benzylidene]-imidazolidine-2,4-dione]
Second: CN1CCN(c2ccccc2C=C2SCCNC2=O)CC1 [Example 10, 2-[2-(4-Methylpiperazin-1-yl)-benzylidene]-thiomorpholin-3-one]
The melting point of the first is higher: 193 to 193.5 °C for the first, 133 to 135 °C for the second.

Compound `CN1CCN(c2cccc(F)c2C=C2SCCN(c3ccc(Cl)c(Cl)c3)C2=O)CC1` [Example 11, 4-(3,4-Dichlorophenyl)-2-[2-fluoro-6-(4-methylpiperazin-1-yl)-benzylidene]-thiomorpholin-3-one] has a melting point of 146 to 147 °C.

For `CN1CCN(c2ccccc2C=C2OCCN(c3ccc(Cl)c(Cl)c3)C2=O)CC1` [Example 12, 4-(3,4-Dichlorophenyl)-2-[2-(4-methylpiperazin-1-yl)-benzylidene]-morpholin-3-one], the melting point was 169 to 171 °C (dec.).
